The experiment relates to BDF1 mice, P1081 chloroleukemia ip, survival T/C. Kind of experiment: NCI In Vivo Anticancer Drug Screen. Data for tumor model P1081 Chloroleukemia (intraperitoneal) in B6D2F1 (BDF1) mice. Conditions: endpoint: mean survival time, higher = longer survival. How it is done:
The antitumor activity of compounds was measured in mice bearing transplantable tumors. Survival or tumor size were measured and the results are expressed as the measurement made in the treated group (T) divided by the measurement made in the vehicle treated control group (C). The tumor model used in this assay is P1081 Chloroleukemia (intraperitoneal) in B6D2F1 (BDF1) mice

The mark [1] stands for this setting: dose: 25.0 mg/kg/injection, schedule: Q01DX010 (ip), vehicle: saline.
Where [2] appears, read: dose: 100.0 mg/kg/injection, schedule: Q01DX010 (ip), vehicle: saline.
The mark [3] stands for this setting: dose: 200.0 mg/kg/injection, schedule: Q01DX010 (ip), vehicle: saline.
Setting [4] is: dose: 5.0 mg/kg/injection, schedule: Q01DX010 (ip), vehicle: saline.
The mark [5] stands for this setting: dose: 10.0 mg/kg/injection, schedule: Q01DX010 (ip), vehicle: saline.
[6] abbreviates: dose: 2.5 mg/kg/injection, schedule: Q01DX010 (ip), vehicle: saline.
The mark [7] stands for this setting: dose: 62.5 mg/kg/injection, schedule: Q01DX Z (ip), vehicle: carboxymethylcellulose (CMC).
[8] abbreviates: dose: 125.0 mg/kg/injection, schedule: Q01DX Z (ip), vehicle: carboxymethylcellulose (CMC).
Where [9] appears, read: dose: 250.0 mg/kg/injection, schedule: Q01DX Z (ip), vehicle: carboxymethylcellulose (CMC).
Setting [10] is: dose: 200.0 mg/kg/injection, schedule: Q01DX Z (ip), vehicle: other.
Where [11] appears, read: dose: 20.0 mg/kg/injection, schedule: Q01DX010 (ip), vehicle: saline.
The mark [12] stands for this setting: dose: 6.25 mg/kg/injection, schedule: Q01DX Z (ip), vehicle: carboxymethylcellulose (CMC).
Where [13] appears, read: dose: 12.5 mg/kg/injection, schedule: Q01DX Z (ip), vehicle: carboxymethylcellulose (CMC).
The mark [14] stands for this setting: dose: 25.0 mg/kg/injection, schedule: Q01DX Z (ip), vehicle: carboxymethylcellulose (CMC).
The mark [15] stands for this setting: dose: 50.0 mg/kg/injection, schedule: Q01DX Z (ip), vehicle: carboxymethylcellulose (CMC).
[16] abbreviates: dose: 100.0 mg/kg/injection, schedule: Q01DX Z (ip), vehicle: carboxymethylcellulose (CMC).
Where [17] appears, read: dose: 500.0 mg/kg/injection, schedule: Q01DX Z (ip), vehicle: carboxymethylcellulose (CMC).

“And” between values parts separate entries of the source, which are not always exact repeats. Identical values can stand only once. Toxic doses and inconclusive results are not listed.

Consider `Nc1c(I)cc(I)cc1C(=O)O`, for which the T/C is, setting by setting: under setting [1], 100 % of control; (dose: 50.0 mg/kg/injection, schedule: Q01DX010 (ip), vehicle: saline) 110 % of control and 88 % of control; under setting [2], 100 % of control and 105 % of control; under setting [3], 111 % of control and 105 % of control.
With `N#[N+]c1cnc([O-])[nH]c1=O`, the T/C is, setting by setting: (dose: 1.25 mg/kg/injection, schedule: Q01DX010 (ip), vehicle: saline) 115 % of control; under setting [4], 160 % of control; under setting [5], 160 % of control and 166 % of control.
On to `NC(Cc1ccc(N(CCCl)CCCl)cc1)C(=O)O` (stereo not given), for which the T/C reads like this: (dose: 1.25 mg/kg/injection, schedule: Q01DX Z (ip), vehicle: carboxymethylcellulose (CMC)) 115 % of control; under setting [6], 150 % of control and 333 % of control; under setting [4], 327 % of control; (dose: 5.0 mg/kg/injection, schedule: Q01DX Z (ip), vehicle: carboxymethylcellulose (CMC)) 189 % of control; under setting [5], 90 % of control; (dose: 10.0 mg/kg/injection, schedule: Q01DX Z (ip), vehicle: carboxymethylcellulose (CMC)) 90 % of control.
As to `Clc1ncnc2nc[nH]c12`, the T/C (dose: 7.5 mg/kg/injection, schedule: Q01DX010 (ip), vehicle: saline) is 110 % of control and 90 % of control; the T/C (dose: 15.0 mg/kg/injection, schedule: Q01DX010 (ip), vehicle: saline) is 90 % of control and 100 % of control; the T/C (dose: 30.0 mg/kg/injection, schedule: Q01DX010 (ip), vehicle: saline) is 110 % of control and 95 % of control; the T/C (dose: 31.25 mg/kg/injection, schedule: Q01DX Z (ip), vehicle: carboxymethylcellulose (CMC)) is 98 % of control; the T/C (dose: 60.0 mg/kg/injection, schedule: Q01DX010 (ip), vehicle: saline) was 110 % of control and 104 % of control; the T/C under setting [7] was 107 % of control and 105 % of control. Moreover, the T/C by setting is: under setting [8], 114 % of control and 121 % of control; under setting [9], 86 % of control and 94 % of control.
`COc1cc(-c2ccc(Nc3ccccc3C(=O)O)c(OC)c2)ccc1Nc1ccccc1C(=O)O`: the T/C by setting is: (dose: 12.5 mg/kg/injection, schedule: Q01DX010 (ip), vehicle: saline) 116 % of control; under setting [1], 122 % of control.
As to `S=c1nc[nH]c2nc[nH]c12`, the T/C is 108 % of control (dose: 1.56 mg/kg/injection, schedule: Q01DX Z (ip), vehicle: other); 120 % of control (dose: 3.12 mg/kg/injection, schedule: Q01DX Z (ip), vehicle: other); 110 % of control and 97 % of control (dose: 5.0 mg/kg/injection, schedule: Q01DX010 (ip), vehicle: alkali diluted with saline); 105 % of control and 92 % of control (dose: 10.0 mg/kg/injection, schedule: Q01DX010 (ip), vehicle: alkali diluted with saline); 106 % of control (2×) and 112 % of control (dose: 20.0 mg/kg/injection, schedule: Q01DX010 (ip), vehicle: alkali diluted with saline); 118 % of control and 90 % of control and 103 % of control (dose: 40.0 mg/kg/injection, schedule: Q01DX010 (ip), vehicle: alkali diluted with saline). Further, the T/C runs as follows: (dose: 80.0 mg/kg/injection, schedule: Q01DX010 (ip), vehicle: alkali diluted with saline) 108 % of control and 116 % of control; under setting [10], 91 % of control and 100 % of control.
As to `C[C@@H]1C[C@@H]([C@H](O)CC2CC(=O)NC(=O)C2)C(=O)[C@@H](C)C1`, the T/C (dose: 0.39 mg/kg/injection, schedule: Q01DX Z (ip), vehicle: water) was 89 % of control; the T/C (dose: 3.12 mg/kg/injection, schedule: Q01DX Z (ip), vehicle: water) is 102 % of control; the T/C under setting [4] was 86 % of control and 100 % of control; the T/C under setting [5] is 110 % of control and 100 % of control; the T/C under setting [11] is 115 % of control and 100 % of control; the T/C (dose: 25.0 mg/kg/injection, schedule: Q01DX Z (ip), vehicle: water) was 93 % of control. Besides, the T/C (dose: 40.0 mg/kg/injection, schedule: Q01DX010 (ip), vehicle: saline) was 90 % of control.
`CN(C)c1ccc(Nc2c3ccccc3nc3ccccc23)cc1`: the T/C by setting is: under setting [12], 101 % of control; under setting [13], 88 % of control; under setting [14], 90 % of control; (dose: 36.0 mg/kg/injection, schedule: Q01DX010 (ip), vehicle: saline) 104 % of control; under setting [15], 95 % of control; under setting [16], 103 % of control.
For the compound `CSc1ncnc2nc[nH]c12`, the T/C under setting [12] is 100 % of control; the T/C under setting [13] is 100 % of control; the T/C under setting [14] was 93 % of control; the T/C under setting [2] was 115 % of control; the T/C under setting [3] is 120 % of control; the T/C (dose: 200.0 mg/kg/injection, schedule: Q01DX Z (ip), vehicle: carboxymethylcellulose (CMC)) is 114 % of control.
In the case of `Cn1c(N)nc2nc[nH]c2c1=S`, the T/C runs as follows: (dose: 1.6 mg/kg/injection, schedule: Q01DX Z (ip), vehicle: carboxymethylcellulose (CMC)) 92 % of control; (dose: 3.1 mg/kg/injection, schedule: Q01DX Z (ip), vehicle: carboxymethylcellulose (CMC)) 95 % of control; under setting [12], 95 % of control and 98 % of control; under setting [5], 120 % of control and 100 % of control; under setting [13], 96 % of control and 102 % of control; under setting [11], 105 % of control. Further, the T/C is 96 % of control and 100 % of control and 105 % of control under setting [14]; 98 % of control and 104 % of control under setting [15]; 98 % of control and 102 % of control under setting [16].
On to `O=CN(O)CC(=O)O`, for which the T/C under setting [7] was 99 % of control, the T/C under setting [8] is 109 % of control, the T/C under setting [9] was 110 % of control and the T/C under setting [17] was 101 % of control.
Consider `Cc1n[nH]c(=O)[nH]c1=O`, for which the T/C reads like this: under setting [10], 98 % of control; (dose: 400.0 mg/kg/injection, schedule: Q01DX Z (ip), vehicle: other) 105 % of control; (dose: 800.0 mg/kg/injection, schedule: Q01DX Z (ip), vehicle: other) 106 % of control and 96 % of control.
`CN(N=O)C(=O)NC(C=O)C(O)C(O)C(O)CO` (stereo not given): the T/C is 93 % of control under setting [12]; 102 % of control under setting [13]; 112 % of control under setting [14]; 100 % of control under setting [15]; 115 % of control (dose: 50.0 mg/kg/injection, schedule: Q01DX Z (ip), vehicle: saline); 107 % of control (dose: 100.0 mg/kg/injection, schedule: Q01DX Z (ip), vehicle: saline). Where the note is “dose: 200.0 mg/kg/injection, schedule: Q01DX Z (ip), vehicle: saline”, the T/C is 88 % of control.
For the compound `COc1cc2c(c(OC)c1OC)-c1ccc(OC)c(=O)cc1[C@@H](NC(C)=O)CC2`, the T/C is 112 % of control (dose: 0.08 mg/kg/injection, schedule: Q01DX Z (ip), vehicle: saline); 114 % of control (dose: 0.16 mg/kg/injection, schedule: Q01DX Z (ip), vehicle: saline); 151 % of control (dose: 0.6 mg/kg/injection, schedule: Q01DX Z (ip), vehicle: saline); 177 % of control (dose: 0.63 mg/kg/injection, schedule: Q01DX Z (ip), vehicle: saline).
On to `O=c1[nH]c(=O)n(C2CC(O)C(CO)O2)cc1I` (stereo not given), for which the T/C is, setting by setting: under setting [7], 103 % of control; under setting [8], 108 % of control; under setting [9], 118 % of control and 92 % of control; under setting [17], 114 % of control.
Consider `CC(=O)N(C)C`, for which the T/C runs as follows: (dose: 62.5 mg/kg/injection, schedule: Q01DX010 (ip), vehicle: saline) 100 % of control; (dose: 125.0 mg/kg/injection, schedule: Q01DX010 (ip), vehicle: saline) 90 % of control and 95 % of control; (dose: 250.0 mg/kg/injection, schedule: Q01DX010 (ip), vehicle: saline) 90 % of control and 95 % of control; (dose: 500.0 mg/kg/injection, schedule: Q01DX010 (ip), vehicle: saline) 90 % of control and 95 % of control.
In the case of `S=P(N1CCOCC1)(N1CC1)N1CC1`, the T/C was 116 % of control and 100 % of control under setting [6]; 105 % of control and 100 % of control under setting [4]; 93 % of control under setting [12]; 110 % of control and 122 % of control under setting [5]; 105 % of control under setting [11].

The values are drawn from PubChem BioAssay AID246 (DTP/NCI, 2004).
